According to patent publication US11964971B2, “Methods and compositions for modulating splicing” (Skyhawk Therapeutics, Inc., priority 2019, dated 2024):

Key:
[1] = test system: SMN protein; experiment: SMN protein assay (MSD) in SMA patient fibroblasts (GM03813); assay type: cell-based, human
Description: Compounds are tested on spinal muscular atrophy (SMA) patient fibroblasts (GM03813, Coriell) at doses ranging from 2.5 μM to 0.6 nM. 7000 cells/well are seeded in 96-well plates. Compounds are incubated for 48 hours and the cells were lysed with 100 μL of lysis buffer. 20 μL of lysate is used for SMN protein measurement by Mesoscale Discovery (MSD) assay developed by PharmOptima (Michigan). A standard curve prepared with SMN protein ranging from […] is used in each MSD plate to calculate the absolute SMN protein amount in each sample.

[2] = test system: MDR1-MDCK cell monolayers; conditions: dog, MDCK-MDR1, 120 min, 5 μM, pH 7.4
[3] = test system: MDR1; experiment: in vitro; conditions: dog; for Papp A→B at 120 min, 5 μM: MDCK-MDR1, pH 7.4, MDCK-MDR1: Papp A-B (10^−6, cm/s); for Papp B→A at 120 min, 5 μM: MDCK-MDR1, pH 7.4, MDCK-MDR1: Papp B-A (10^−6, cm/s)
[4] = test system: MDR1 (P-gp); experiment: MDCK-MDR1 permeability assay, blood-brain-barrier penetration potential; conditions: dog, MDCK-MDR1, pH 7.4, MDCK-MDR1 Efflux Ratio

| SMILES | EC50 [1] | MDCK-MDR1: % Recov A-B (%) [2] | MDCK-MDR1: % Recov B-A (%) [2] | Papp A→B at 120 min, 5 μM [3] | Papp B→A at 120 min, 5 μM [3] | efflux ratio at 120 min, 5 μM [4] |
| --- | --- | --- | --- | --- | --- | --- |
| COc1cc(-c2ccc(-c3cnc(N(C)[C@@H]4CC5COC[C@H](N5)[C@@H]4F)cn3)c(O)c2)cnn1 (single isomer, unassigned) [Compound 74E1] | 501 to 10000 nM | 88% | 98% | 1.87 ×10⁻⁶ cm/s | 45.5 ×10⁻⁶ cm/s | 24 |
| COc1cc(-c2ccc(-c3cnc(N(C4CC4)[C@@H]4CC5CC[C@H](N5)[C@@H]4F)cn3)c(O)c2)ncn1 (single isomer, unassigned) [Compound 56E1] | 501 to 10000 nM | 17% | 51% | 2.09 ×10⁻⁶ cm/s | 7.91 ×10⁻⁶ cm/s | 4 |
| Cn1ccc(-c2ccc(-c3cnc(N(C4CC4)[C@@H]4CC5CC[C@H](N5)[C@@H]4F)cn3)c(O)c2)cc1=O (single isomer, unassigned) [Compound 53E1] | 501 to 10000 nM | 71% | 71% | 1.51 ×10⁻⁶ cm/s | 50.9 ×10⁻⁶ cm/s | 34 |
| C[C@@]12CC[C@@](C)(N1)[C@@H](F)[C@@H](Oc1cnc(-c3ccc(-c4cn[nH]c4)cc3O)cn1)C2 [Compound 2E1, 2-(5-(((1R,2R,35,5S)-2-fluoro-1,5-dimethyl-8-azabicyclo[3.2.1]octan-3-yl)oxy)pyrazin-2-yl)-5-(1H-pyrazol-4-yl)phenol] | 501 to 10000 nM | 71% | 86% | 7.93 ×10⁻⁶ cm/s | 40.7 ×10⁻⁶ cm/s | 5 |
| CN(c1cnc(-c2cc(F)c(-c3cnn(C)c3)cc2O)cn1)[C@H]1C[C@@H]2CCC(N2)[C@H]1F (single isomer, unassigned) [Compound 17E1] | 0.01 to 15 nM | 31% | 74% | 4.22 ×10⁻⁶ cm/s | 18.6 ×10⁻⁶ cm/s | 4 |
| CN(c1cnc(-c2ccc(-c3cn[nH]c3)cc2O)cn1)[C@@H]1C[C@@]2(C)CC[C@H](N2)[C@@H]1F [Compound 28E4, 2-(5-(((1R,3R,4S,5S)-4-fluoro-1-methyl-8-azabicyclo[3.2.1]octan-3-yl)(methyl)amino)pyrazin-2-yl)-5-(1H-pyrazol-4-yl)phenol] | 501 to 10000 nM | 68% | 84% | 4.42 ×10⁻⁶ cm/s | 48.4 ×10⁻⁶ cm/s | 11 |
| CN(c1cnc(-c2ccc(-c3cn[nH]c3)cc2O)cn1)[C@@H]1C[C@@]2(C)CCC[C@](C)(N2)[C@@H]1F [Compound 23E1, 2-(5-(((1S,2R,3R,5R)-2-fluoro-1,5-dimethyl-9-azabicyclo[3.3.1]nonan-3-yl)(methyl)amino)pyrazin-2-yl)-5-(1H-pyrazol-4-yl)phenol] | 501 to 10000 nM | 56% | 78% | 9.07 ×10⁻⁶ cm/s | 38.7 ×10⁻⁶ cm/s | 4 |
| CN(c1cnc(-c2ccc(-c3cc(=O)n(C)cn3)cc2O)cn1)[C@H]1C[C@@H]2CCC(N2)[C@H]1F (single isomer, unassigned) [Compound 47E2] | 51 to 100 nM | 84% | 90% | 3.35 ×10⁻⁶ cm/s | 51.1 ×10⁻⁶ cm/s | 15 |
| CN(c1cnc(-c2cc(F)c(-c3cnn(C)c3)cc2O)cn1)[C@@H]1CC2N[C@H](C1)CC2(F)F (single isomer, unassigned) [Compound 66E2] | 501 to 10000 nM | 43% | 55% | 22.7 ×10⁻⁶ cm/s | 18.3 ×10⁻⁶ cm/s | 1 |
| CN(c1cnc(-c2ccc(-c3cc(=O)n(C)cn3)cc2O)cn1)[C@@H]1CC2CC[C@H](N2)[C@@H]1F (single isomer, unassigned) [Compound 47E1] | 101 to 500 nM | 74% | 78% | 2.32 ×10⁻⁶ cm/s | 52.8 ×10⁻⁶ cm/s | 23 |
| CN(c1cnc(-c2cc3ncn(CC(F)(F)F)c(=O)c3cc2O)cn1)[C@@H]1CC2CCC[C@H](N2)[C@@H]1F (single isomer, unassigned) [Compound 18E1] | 501 to 10000 nM | 78% | 86% | 0.92 ×10⁻⁶ cm/s | 65.1 ×10⁻⁶ cm/s | 71 |
| CN(c1cnc(-c2cc(F)c(-c3cn[nH]c3)cc2O)cn1)[C@@H]1CC2N[C@H](C1)CC2(F)F (single isomer, unassigned) [Compound 65E2] | 501 to 10000 nM | 54% | 63% | 28.3 ×10⁻⁶ cm/s | 37.7 ×10⁻⁶ cm/s | 1 |
| COc1cc(-c2ccc(-c3cnc(N(C)[C@H]4C[C@]5(C)CCC[C@@](C)(N5)[C@H]4F)cn3)c(O)c2)cnn1 [Compound 24E2, 2-(5-(((1R,2S,3S,5S)-2-fluoro-1,5-dimethyl-9-azabicyclo[3.3.1]nonan-3-yl)(methyl)amino)pyrazin-2-yl)-5-(6-methoxypyridazin-4-yl)phenol] | 501 to 10000 nM | 37% | 44% | 3.01 ×10⁻⁶ cm/s | 6.99 ×10⁻⁶ cm/s | 2 |
| C[C@]12CC[C@](C)(N1)[C@H](F)[C@H](Oc1cnc(-c3ccc(-c4cn[nH]c4)cc3O)cn1)C2 [Compound 2E2, 2-(5-(((1S,2S,3R,5R)-2-fluoro-1,5-dimethyl-8-azabicyclo[3.2.1]octan-3-yl)oxy)pyrazin-2-yl)-5-(1H-pyrazol-4-yl)phenol] | 501 to 10000 nM | 71% | 79% | 9.6 ×10⁻⁶ cm/s | 34.7 ×10⁻⁶ cm/s | 4 |
| Cn1ccc(-c2cc(O)c(-c3cnc(N(C4CC4)[C@@H]4CC5CC[C@H](N5)[C@@H]4F)cn3)cc2F)cc1=O (single isomer, unassigned) [Compound 38E1] | 501 to 10000 nM | 81% | 94% | 1.47 ×10⁻⁶ cm/s | 54.9 ×10⁻⁶ cm/s | 37 |
| CN(c1cnc(-c2ccc(-c3cc[nH]c(=O)c3)cc2O)cn1)[C@@H]1CC2CC[C@H](N2)[C@@H]1F (single isomer, unassigned) [Compound 76E1] | 51 to 100 nM | 89% | 75% | 0.29 ×10⁻⁶ cm/s | 30.1 ×10⁻⁶ cm/s | 102 |
| COc1cc(-c2ccc(-c3cnc(N(C4CC4)[C@H]4C[C@@H]5CCC(N5)[C@H]4F)cn3)c(O)c2)cc(F)n1 (single isomer, unassigned) [Compound 52E2] | 501 to 10000 nM | 12% | 49% | 1.63 ×10⁻⁶ cm/s | 3.32 ×10⁻⁶ cm/s | 2 |
| CN(c1cnc(-c2cc(F)c(-c3cc(=O)n(C)cn3)cc2O)cn1)[C@H]1C[C@@H]2CCC(N2)[C@H]1F (single isomer, unassigned) [Compound 33E2] | 501 to 10000 nM | 91% | 99% | 3.5 ×10⁻⁶ cm/s | 62.7 ×10⁻⁶ cm/s | 18 |
| COc1cc(-c2cc(O)c(-c3cnc(N(C)[C@@H]4CC5N[C@H](C4)CC5(F)F)cn3)cc2F)cnn1 (single isomer, unassigned) [Compound 67E2] | 501 to 10000 nM | 60% | 68% | 14.3 ×10⁻⁶ cm/s | 55.4 ×10⁻⁶ cm/s | 4 |
| COc1cc(-c2cc(O)c(-c3cnc(N(C4CC4)[C@@H]4CC5CC[C@H](N5)[C@@H]4F)cn3)cc2F)cc(F)n1 (single isomer, unassigned) [Compound 37E1] | 501 to 10000 nM | 18% | 53% | 1.41 ×10⁻⁶ cm/s | 2.73 ×10⁻⁶ cm/s | 2 |
| COc1cc(-c2ccc(-c3cnc(N(C)[C@@H]4CC5CC[C@H](N5)[C@@H]4F)cn3)c(O)c2)cc(F)n1 (single isomer, unassigned) [Compound 44E1] | 501 to 10000 nM | 14% | 41% | 2.33 ×10⁻⁶ cm/s | 5.55 ×10⁻⁶ cm/s | 2 |
| Oc1cc(-c2cn[nH]c2)ccc1-c1cnc(O[C@H]2CC3CC[C@@H](N3)[C@H]2F)cn1 (single isomer, unassigned) [Compound 1E1] | 501 to 10000 nM | 68% | 82% | 8.22 ×10⁻⁶ cm/s | 33.4 ×10⁻⁶ cm/s | 4 |
| CN(c1cnc(-c2cc(F)c(-c3cn[nH]c3)cc2O)cn1)[C@@H]1CC2CC(F)(F)[C@@H](C1)N2 (single isomer, unassigned) [Compound 65E1] | 101 to 500 nM | 54% | 71% | 20.9 ×10⁻⁶ cm/s | 54.5 ×10⁻⁶ cm/s | 3 |
